The results in this text go back to patent publication US11739101B2, “Bifunctional degraders of hematopoietic progenitor kinase and therapeutic uses thereof” (Nurix Therapeutics, Inc., priority 2020, dated 2023).

The structures appear in SMILES notation.

The experiment deals with T1, HPK1 (Homo sapiens, UniProt Q92918).
T1 construct: A HiBiT tag was introduced by CRISPR on the N terminus of HPK1 in Jurkat cells; host or cells: Jurkat (ATCC TIB-152), monoclonal CRISPR HiBiT knock-in line
Description: HPK1 Cellular HiBiT Degradation Assay. In kind it is cell-based. The following applies: HiBiT-tagged HPK1 Jurkat cells, 24 hours, 10 uM to 0.1 nM; Dmax = 100 minus lowest % HPK1 remaining vs DMSO vehicle. Put shortly:
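Jurkat cells with CRISPR N-terminal HiBiT-tagged HPK1 were exposed to an 11-point 3.16-fold dilution series, 10 uM to 0.1 nM final, for 24 hours at 37° C./5% CO2. HPK1 was read by HiBiT lytic luminescence against DMSO as 100% and parental cells as background. Dmax is 100 minus the lowest % remaining from a four-parameter fit, with a parallel CellTiter-Glo viability check.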
Background: With HiBiT, luminescence reflects the tagged protein that the partner subunit can reach.

T1 sequence (Q92918 whole entry): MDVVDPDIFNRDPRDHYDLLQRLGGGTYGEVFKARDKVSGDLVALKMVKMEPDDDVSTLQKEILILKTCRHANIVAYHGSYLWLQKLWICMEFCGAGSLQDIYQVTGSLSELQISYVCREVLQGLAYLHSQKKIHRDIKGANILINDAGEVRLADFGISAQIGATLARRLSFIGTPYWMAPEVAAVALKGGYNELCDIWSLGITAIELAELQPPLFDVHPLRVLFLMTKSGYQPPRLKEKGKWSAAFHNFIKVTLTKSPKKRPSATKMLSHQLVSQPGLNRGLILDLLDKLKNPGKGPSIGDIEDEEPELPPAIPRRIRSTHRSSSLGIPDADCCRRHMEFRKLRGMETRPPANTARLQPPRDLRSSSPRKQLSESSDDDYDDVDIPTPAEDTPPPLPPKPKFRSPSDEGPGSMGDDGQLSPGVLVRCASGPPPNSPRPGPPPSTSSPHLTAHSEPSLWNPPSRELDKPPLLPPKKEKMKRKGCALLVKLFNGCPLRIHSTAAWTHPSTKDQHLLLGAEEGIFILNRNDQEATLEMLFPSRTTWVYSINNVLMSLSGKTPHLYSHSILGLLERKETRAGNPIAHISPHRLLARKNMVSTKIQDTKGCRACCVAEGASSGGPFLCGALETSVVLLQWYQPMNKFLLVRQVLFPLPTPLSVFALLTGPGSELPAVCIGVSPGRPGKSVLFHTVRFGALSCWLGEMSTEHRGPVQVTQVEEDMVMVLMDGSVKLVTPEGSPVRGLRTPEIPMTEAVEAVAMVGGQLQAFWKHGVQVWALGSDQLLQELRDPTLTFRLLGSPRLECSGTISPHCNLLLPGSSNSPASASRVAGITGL

Take `Cc1cc(F)c(Nc2nc(-c3ccc4c(c3)N([C@H]3C[C@@H](N5CCCCC5)C3)C(=O)C43CCN(C(=O)[C@@H]4CCN(C(=O)[C@H]5CC[C@H](Nc6ccc7c(c6)C(=O)N(C6CCC(=O)NC6=O)C7=O)CC5)C4)CC3)cc3ncn(C(C)C)c23)cc1C(=O)NC(C)C` (stereo partly drawn) [Example 81, 5-((6-(1′-((3R)-1-((1R,4R)-4-((2-(2,6-dioxopiperidin-3-yl)-1,3-dioxoisoindolin-5-yl)amino)cyclohexane-1-carbonyl)pyrrolidine-3-carbonyl)-2-oxo-1-((1s,3s)-3-(piperidin-1-yl)cyclobutyl)spiro[indoline-3,4′-piperidin]-6-yl)-3-isopropyl-3H-imidazo[4,5-c]pyridin-4-yl)amino)-4-fluoro-N-isopropyl-2-methylbenzamide]: the maximal degradation (Dmax) fell in the range of 45 to 65%.

Molecule `Cc1cc(F)c(Nc2nc(-c3ccc4c(c3)N([C@H]3C[C@@H](N5CCCCC5)C3)C(=O)C43CCN(C(=O)[C@@H]4CCN(C(=O)C[C@H]5CC[C@H](Nc6cccc7c6C(=O)N(C6CCC(=O)NC6=O)C7=O)CC5)C4)CC3)cc3ncn(C(C)C)c23)cc1C(=O)NC(C)C` (stereo partly drawn) [Example 82, 5-((6-(1′-((3R)-1-(2-((1R,4R)-4-((2-(2,6-dioxopiperidin-3-yl)-1,3-dioxoisoindolin-4-yl)amino)cyclohexyl)acetyl)pyrrolidine-3-carbonyl)-2-oxo-1-((1s,3s)-3-(piperidin-1-yl)cyclobutyl)spiro[indoline-3,4′-piperidin]-6-yl)-3-isopropyl-3H-imidazo[4,5-c]pyridin-4-yl)amino)-4-fluoro-N-isopropyl-2-methylbenzamide] showed a Dmax of 45 to 65%.

`Cc1cc(F)c(Nc2nc(-c3ccc4c(c3)N([C@H]3C[C@@H](N5CCCCC5)C3)C(=O)C43CCN(C(=O)c4ccc(N5CCN(c6cccc7c6C(=O)N(C6CCC(=O)NC6=O)C7=O)CC5)nc4)CC3)cc3ncn(C(C)C)c23)cc1C(=O)NC(C)C` (some centres unmarked) [Example 83, 5-((6-(1′-(6-(4-(2-(2,6-dioxopiperidin-3-yl)-1,3-dioxoisoindolin-4-yl)piperazin-1-yl)nicotinoyl)-2-oxo-1-((1s,3)-3-(piperidin-1-yl)cyclobutyl)spiro[indoline-3,4′-piperidin]-6-yl)-3-isopropyl-3H-imidazo[4,5-c]pyridin-4-yl)amino)-4-fluoro-N-isopropyl-2-methylbenzamide] registered a Dmax of less than 45%.

`Cc1cc(F)c(Nc2nc(-c3ccc4c(c3)N([C@H]3C[C@@H](N5CCCCC5)C3)C(=O)C43CCN(C(=O)c4cnc(N5CCN(c6cccc7c6C(=O)N(C6CCC(=O)NC6=O)C7=O)CC5)cn4)CC3)cc3ncn(C(C)C)c23)cc1C(=O)NC(C)C` (some centres unmarked) [Example 84, 5-((6-(1′-(5-(4-(2-(2,6-dioxopiperidin-3-yl)-1,3-dioxoisoindolin-4-yl)piperazin-1-yl)pyrazine-2-carbonyl)-2-oxo-1-((1s,3s)-3-(piperidin-1-yl)cyclobutyl)spiro[indoline-3,4′-piperidin]-6-yl)-3-isopropyl-3H-imidazo[4,5-c]pyridin-4-yl)amino)-4-fluoro-N-isopropyl-2-methylbenzamide] returned a Dmax of 45 to 65%.

For the molecule `Cc1cc(F)c(Nc2nc(-c3ccc4c(c3)N([C@H]3C[C@@H](N5CCCCC5)C3)C(=O)C43CCN(C(=O)c4ccc(N5CCN(c6ccc7c(c6)C(=O)N(C6CCC(=O)NC6=O)C7=O)CC5)nc4)CC3)cc3ncn(C(C)C)c23)cc1C(=O)NC(C)C` (some centres unmarked) [Example 85, 5-((6-(1′-(6-(4-(2-(2,6-dioxopiperidin-3-yl)-1,3-dioxoisoindolin-5-yl)piperazin-1-yl)nicotinoyl)-2-oxo-1-((1s,3s)-3-(piperidin-1-yl)cyclobutyl)spiro[indoline-3,4′-piperidin]-6-yl)-3-isopropyl-3H-imidazo[4,5-c]pyridin-4-yl)amino)-4-fluoro-N-isopropyl-2-methylbenzamide], the Dmax is less than 45%.

For orientation: Dmax means the largest share of the target that was removed.
